Measured values taken from ChEMBL document CHEMBL3603767, “Discovery of new acetylcholinesterase inhibitors with small core structures through shape-based virtual screening” (Bioorg Med Chem Lett, 2015).
Active and inactive are the calls of the source. The calls are words filed in the database; no cut-off is given here.

What was measured:
[1] = molecular target: Acetylcholinesterase (Electrophorus electricus) (UniProt O42275); test: Inhibition of Electrophorus electricus AChE at 10 uM pre-incubated for 5 mins before acetylthiocholine iodide substrate addition by Ellman's method
[2] = molecular target: Cholinesterase (Equus caballus) (UniProt P81908); test: Inhibition of equine serum BChE at 10 uM pre-incubated for 5 mins before butyrylthiocholineiodide substrate addition by Ellman's method
Acetylcholinesterase = Acetylcholinesterase (Electrophorus electricus, UniProt O42275)
Description: Inhibition of Electrophorus electricus AChE pre-incubated for 5 mins before acetylthiocholine iodide substrate addition by Ellman's method

Cholinesterase = Cholinesterase (Equus caballus, UniProt P81908)
Description: Inhibition of equine serum BChE pre-incubated for 5 mins before butyrylthiocholineiodide substrate addition by Ellman's method

[3] = molecular target: Acetylcholinesterase (Electrophorus electricus) (UniProt O42275); test: Mixed type inhibition of Electrophorus electricus AChE assessed as reduction in enzyme Vmax at 5 to 80 nM pre-incubated for 5 mins before acetylthiocholine iodide substrate addition by Lineweaver-Burk plot
[4] = molecular target: Acetylcholinesterase (Electrophorus electricus) (UniProt O42275); test: Mixed type inhibition of Electrophorus electricus AChE assessed as increase in enzyme Km at 5 to 80 nM pre-incubated for 5 mins before acetylthiocholine iodide substrate addition by Lineweaver-Burk plot

Chain of Acetylcholinesterase (O42275 whole entry): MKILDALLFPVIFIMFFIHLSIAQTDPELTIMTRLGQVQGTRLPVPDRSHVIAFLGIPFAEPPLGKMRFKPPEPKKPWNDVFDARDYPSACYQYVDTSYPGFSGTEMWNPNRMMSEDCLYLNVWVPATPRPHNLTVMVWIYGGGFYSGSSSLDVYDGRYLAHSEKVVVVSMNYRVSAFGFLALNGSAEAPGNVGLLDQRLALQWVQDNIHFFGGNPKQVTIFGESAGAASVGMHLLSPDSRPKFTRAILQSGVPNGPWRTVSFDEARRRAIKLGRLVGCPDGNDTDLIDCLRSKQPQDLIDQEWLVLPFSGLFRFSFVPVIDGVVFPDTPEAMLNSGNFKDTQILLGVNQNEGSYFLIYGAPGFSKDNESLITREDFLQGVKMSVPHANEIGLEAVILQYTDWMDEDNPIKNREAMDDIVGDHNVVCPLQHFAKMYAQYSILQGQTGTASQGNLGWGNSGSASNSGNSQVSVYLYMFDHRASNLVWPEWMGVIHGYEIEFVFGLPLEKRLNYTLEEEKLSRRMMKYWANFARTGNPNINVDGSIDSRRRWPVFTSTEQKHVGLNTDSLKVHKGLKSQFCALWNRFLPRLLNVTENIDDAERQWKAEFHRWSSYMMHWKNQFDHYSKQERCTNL
Chain of Acetylcholinesterase (Electrophorus electricus) (O42275 24-633 limits assumed): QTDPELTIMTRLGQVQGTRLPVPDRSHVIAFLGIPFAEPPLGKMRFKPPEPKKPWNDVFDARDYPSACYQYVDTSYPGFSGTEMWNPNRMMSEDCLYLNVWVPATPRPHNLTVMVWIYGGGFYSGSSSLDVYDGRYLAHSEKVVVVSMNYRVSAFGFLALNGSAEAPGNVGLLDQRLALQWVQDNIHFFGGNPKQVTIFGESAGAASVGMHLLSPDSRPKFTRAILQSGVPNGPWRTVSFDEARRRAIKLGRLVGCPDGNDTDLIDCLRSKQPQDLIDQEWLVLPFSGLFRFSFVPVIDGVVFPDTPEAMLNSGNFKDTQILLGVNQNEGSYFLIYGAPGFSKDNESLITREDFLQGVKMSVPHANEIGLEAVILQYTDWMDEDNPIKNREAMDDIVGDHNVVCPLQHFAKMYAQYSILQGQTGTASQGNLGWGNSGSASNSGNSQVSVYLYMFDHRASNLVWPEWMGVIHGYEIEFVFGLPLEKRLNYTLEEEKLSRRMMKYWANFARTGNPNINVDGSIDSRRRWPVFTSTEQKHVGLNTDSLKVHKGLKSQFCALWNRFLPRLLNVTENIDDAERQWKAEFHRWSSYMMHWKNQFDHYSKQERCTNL
Chain of Cholinesterase (Equus caballus) (P81908 whole entry): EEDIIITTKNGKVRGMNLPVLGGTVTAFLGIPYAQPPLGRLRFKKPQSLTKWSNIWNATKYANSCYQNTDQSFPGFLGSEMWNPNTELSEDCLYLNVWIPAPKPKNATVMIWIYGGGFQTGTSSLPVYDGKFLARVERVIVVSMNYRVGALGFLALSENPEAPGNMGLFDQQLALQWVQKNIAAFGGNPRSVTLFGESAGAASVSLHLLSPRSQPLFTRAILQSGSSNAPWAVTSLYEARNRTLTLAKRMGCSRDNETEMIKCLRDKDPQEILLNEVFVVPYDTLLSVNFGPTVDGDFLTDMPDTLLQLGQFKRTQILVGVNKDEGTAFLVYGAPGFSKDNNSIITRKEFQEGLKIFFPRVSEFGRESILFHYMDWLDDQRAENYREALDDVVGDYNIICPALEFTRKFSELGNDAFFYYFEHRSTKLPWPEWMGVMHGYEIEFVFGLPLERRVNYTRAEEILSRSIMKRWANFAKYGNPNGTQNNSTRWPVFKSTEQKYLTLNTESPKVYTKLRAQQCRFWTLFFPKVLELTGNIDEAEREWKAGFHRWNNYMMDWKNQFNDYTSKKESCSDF
Chain of Cholinesterase (P81908 whole entry): as above

SMILES | inhibition [1] | inhibition [2] | IC50 (Acetylcholinesterase) | IC50 (Cholinesterase) | inhibition [3] | inhibition [4]
COc1ccc2nc(C(F)(F)F)c(C#N)c(N)c2c1 | 85% | 35.4% | 690 nM | 30700 nM | – | –
Nc1c2c(nc3sccc13)CCCC2 | 99.8% | 98.2% | 260 nM | 110 nM | – | –
Nc1nc(O)c2c(n1)CCC2 | 45.6% | 45.8% | – | – | – | –
Nc1c2c(nc3ccccc13)N(Cc1ccccc1)CC2 | 96.4% | 99.8% | 740 nM | 2250 nM | – | –
CN1CCNc2nc3ccccc3nc21 | 26.1% | 42.1% | – | – | – | –
CC(=O)c1c(C)nc2ccccc2c1N | 96.9% | 99.7% | 320 nM | 460 nM | Active | Active
CCCCN1CCc2c1nc1ccc(Br)cc1c2N | 90.6% | 92.5% | 300 nM | 8920 nM | – | –
CC(=O)c1oc2ccccc2c1N | 13.3% | 49.2% | – | – | – | –
O=c1c(Br)c[nH]c2cccnc12 | 28.3% | 24.2% | – | – | – | –
Nc1ccc2nc3n(c(=O)c2c1)CCC3 | 59.2% | 31.7% | – | – | – | –
Nc1c2c(nc3c1C1CCCCC1S3)CCCC2 (stereo not given) | 95.6% | 98.8% | 30 nM | 330 nM | Active | Active
Nc1c(N)c2ccccc2oc1=O | 8.33% | 27.9% | – | – | – | –
CC1(C)CC(=O)c2c(nc3ccccc3c2N)C1 | 92.8% | 85% | 7190 nM | 36200 nM | – | –
Oc1nc(S)nc2c1CCCN2 | 68.3% | 30.4% | – | – | – | –
Nc1c2c(nc3c1CCC3)CCCC2 [IPIDACRINE] | 98.7% | 99% | 170 nM | 70 nM | – | –
Nc1nc(N)c2c(n1)CCC2 | 50.8% | 46.7% | – | – | – | –
Cc1cccc2c(N)c3c(nc12)N(C)CC3 | 89.7% | 90.8% | 1150 nM | 15900 nM | – | –
Nc1c2c(nc3c4c(nn13)CCC4)CCC2 | 76.7% | 59.2% | 7410 nM | 60900 nM | – | –
Oc1ccnc2ccccc12 | 32.5% | 28.8% | – | – | – | –
O=c1c2ccccc2nc2n1CCCS2 | 59.2% | 45% | – | – | – | –
O=C1c2ccccc2NC2=NCCCN12 | 26.7% | 42.5% | – | – | – | –
Nc1nc(N)c2c(Br)cccc2n1 | 76.9% | 82.5% | – | – | – | –
N#CCSc1nc(N)c2c3c(sc2n1)CCCC3 | 34.2% | 65.4% | – | – | – | –
